In patent US8129366B2, “VLA-4 inhibitory drug” (Daiichi Sankyo Company, Limited, priority 2005, dated 2012):

Target: T1, hα4 and β1 integrins (Homo sapiens, UniProt P05556+P13612)
T1 construct: expressed in transfected cells; host or cells: CHO cells
Assay: In vitro inhibition of binding between CHO cells expressing hα4 and β1 integrins and Eu3+-hVCAM-1 D1D7-IgG
Conditions: for Ki: CHO cells expressing hα4 and β1 integrins, Eu3+-hVCAM-1 D1D7-IgG ligand, without HSA; for IC50: in the presence of 3% human serum albumin (HSA final concentration 3%)
Summary of the method: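 Bound europium-labelled VCAM-1 D1D7-IgG on α4β1-expressing CHO cells was measured by time-resolved fluorescence after washing at 4 °C. Ligand (2 nM working dilution) and test compound, with or without 3% final HSA, were co-incubated for 1 h at room temperature in Mn²⁺-containing HEPES buffer, pH 7.5. IC50 came from % binding inhibition; Ki was calculated from ligand concentration and Scatchard Kd.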

T1 sequence (P13612 34-1032): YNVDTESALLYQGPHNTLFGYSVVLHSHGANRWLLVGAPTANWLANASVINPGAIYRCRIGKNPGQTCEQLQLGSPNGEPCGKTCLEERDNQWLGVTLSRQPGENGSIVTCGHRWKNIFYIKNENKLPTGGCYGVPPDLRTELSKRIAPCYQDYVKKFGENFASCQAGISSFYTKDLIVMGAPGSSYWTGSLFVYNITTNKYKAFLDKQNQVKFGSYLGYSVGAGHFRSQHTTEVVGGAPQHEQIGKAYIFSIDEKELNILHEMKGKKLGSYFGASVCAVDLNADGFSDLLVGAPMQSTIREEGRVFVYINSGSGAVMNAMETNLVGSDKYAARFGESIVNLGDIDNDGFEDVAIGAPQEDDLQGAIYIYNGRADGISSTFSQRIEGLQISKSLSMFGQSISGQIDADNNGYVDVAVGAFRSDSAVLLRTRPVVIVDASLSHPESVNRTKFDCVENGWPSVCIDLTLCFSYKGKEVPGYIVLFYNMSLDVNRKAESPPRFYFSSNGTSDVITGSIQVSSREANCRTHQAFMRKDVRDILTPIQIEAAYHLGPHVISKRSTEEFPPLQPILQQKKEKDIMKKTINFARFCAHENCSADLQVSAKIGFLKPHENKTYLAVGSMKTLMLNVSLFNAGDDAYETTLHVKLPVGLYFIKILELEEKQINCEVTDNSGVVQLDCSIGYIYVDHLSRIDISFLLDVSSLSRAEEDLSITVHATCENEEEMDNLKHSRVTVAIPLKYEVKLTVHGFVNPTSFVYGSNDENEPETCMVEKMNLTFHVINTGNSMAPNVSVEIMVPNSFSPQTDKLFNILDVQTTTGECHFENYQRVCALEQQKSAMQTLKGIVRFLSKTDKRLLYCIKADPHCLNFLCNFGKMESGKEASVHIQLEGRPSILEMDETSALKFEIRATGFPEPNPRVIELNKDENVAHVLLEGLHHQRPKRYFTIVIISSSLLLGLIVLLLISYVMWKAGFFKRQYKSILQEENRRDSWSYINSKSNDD
T1 sequence (P05556 21-798): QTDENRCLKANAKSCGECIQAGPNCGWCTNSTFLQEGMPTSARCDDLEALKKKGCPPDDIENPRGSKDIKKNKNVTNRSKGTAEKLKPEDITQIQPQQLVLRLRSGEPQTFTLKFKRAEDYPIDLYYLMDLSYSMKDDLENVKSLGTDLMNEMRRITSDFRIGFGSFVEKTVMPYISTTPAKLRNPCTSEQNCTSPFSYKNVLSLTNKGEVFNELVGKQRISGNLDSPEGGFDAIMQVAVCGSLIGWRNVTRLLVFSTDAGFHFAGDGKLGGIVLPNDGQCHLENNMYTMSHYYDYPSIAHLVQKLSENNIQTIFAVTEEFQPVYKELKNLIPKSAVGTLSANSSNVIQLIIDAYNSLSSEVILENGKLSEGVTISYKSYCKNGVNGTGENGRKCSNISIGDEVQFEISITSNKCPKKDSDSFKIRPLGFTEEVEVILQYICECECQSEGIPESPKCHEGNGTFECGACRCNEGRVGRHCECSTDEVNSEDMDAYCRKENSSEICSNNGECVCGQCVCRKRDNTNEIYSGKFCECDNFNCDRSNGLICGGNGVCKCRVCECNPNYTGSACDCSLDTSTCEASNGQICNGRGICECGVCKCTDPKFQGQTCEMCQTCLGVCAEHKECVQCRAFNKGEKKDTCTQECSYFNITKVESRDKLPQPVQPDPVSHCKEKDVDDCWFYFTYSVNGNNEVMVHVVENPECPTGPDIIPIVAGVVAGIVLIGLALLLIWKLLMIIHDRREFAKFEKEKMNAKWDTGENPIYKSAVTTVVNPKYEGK

| Ki | IC50 | SMILES |
| --- | --- | --- |
| 3.1 nM | 8.2 nM | Cn1cc(C(=O)Nc2cc(Cl)c(CC(=O)N3C[C@@H](N4CCC(S(C)(=O)=O)CC4)C[C@H]3CO[C@H]3CC[C@H](C(=O)O)CC3)cc2Cl)c2ccccc21 [Example 108, Trans-4-[1-[[2,5-dichloro-4-[(1-methyl-1H-indol-3-ylcarbonyl)amino]phenyl]acetyl]-(4S)-(4-methanesulfonylpiperidin-1-yl)-(2S)-pyrrolidinylmethoxy]cyclohexanecarboxylic acid] |
| 3.6 nM | 5.2 nM | CN(C)C1CCN([C@H]2C[C@@H](CO[C@H]3CC[C@H](C(=O)O)CC3)N(C(=O)Cc3cc(Cl)c(NC(=O)c4cn(C)c5ccccc45)cc3F)C2)CC1 [Example 109, Trans-4-[1-[[5-chloro-2-fluoro-4-[(1-methyl-1H-indol-3-ylcarbonyl)amino]phenyl]acetyl]-(4S)-[4-(N,N-dimethylamino)piperidin-1-yl]-(2S)-pyrrolidinylmethoxy]cyclohexanecarboxylic acid] |
| 0.29 nM | 1.2 nM | CN1CCN([C@H]2C[C@@H](CO[C@H]3CC[C@H](C(=O)O)CC3)N(C(=O)Cc3cc(Cl)c(NC(=O)c4csc5ccccc45)cc3F)C2)CC1 [Example 111, Trans-4-[1-[[4-[(benzo[b]thiophen-3-ylcarbonyl)amino]-5-chloro-2-fluorophenyl]acetyl]-(4S)-(4-methylpiperazin-1-yl)-(2S)-pyrrolidinylmethoxy]cyclohexanecarboxylic acid] |
| 4.2 nM | 9.5 nM | CN1CCN([C@H]2C[C@@H](CO[C@H]3CC[C@H](C(=O)O)CC3)N(C(=O)Cc3cc(Cl)c(NC(=O)c4cn(C)c5ccccc45)cc3Cl)C2)CC1 [Example 112, Trans-4-[1-[[2,5-dichloro-4-[(1-methyl-1H-indol-3-ylcarbonyl)amino]phenyl]acetyl]-(4S)-(4-methylpiperazin-1-yl)-(2S)-pyrrolidinylmethoxy]cyclohexanecarboxylic acid] |
| 3 nM | 8.9 nM | CC(C)(C)N1CCN([C@H]2C[C@@H](CO[C@H]3CC[C@H](C(=O)O)CC3)N(C(=O)Cc3cc(Cl)c(NC(=O)c4coc5ccccc45)cc3Cl)C2)CC1 [Example 114, Trans-4-[1-[[4-[(benzo[b]furan-3-ylcarbonyl)amino]-2,5-dichlorophenyl]acetyl]-(4S)-[4-(tert-butyl)piperazin-1-yl]-(2S)-pyrrolidinylmethoxy]cyclohexanecarboxylic acid] |
| 4.2 nM | 13 nM | Cn1cc(C(=O)Nc2cc(Cl)c(CC(=O)N3C[C@@H](N4CCN(CC5CC5)CC4)C[C@H]3CO[C@H]3CC[C@H](C(=O)O)CC3)cc2Cl)c2ccccc21 [Example 115, Trans-4-[1-[[2,5-dichloro-4-[(1-methyl-1H-indol-3-ylcarbonyl)amino]phenyl]acetyl]-(4S)-[(4-cyclopropylmethyl)piperazin-1-yl]-(2S)-pyrrolidinylmethoxy]cyclohexanecarboxylic acid] |
| 0.6 nM | 21 nM | O=C(Nc1cc(F)c(CC(=O)N2C[C@@H](N3CCN(Cc4ccccc4)CC3)C[C@H]2CO[C@H]2CC[C@H](C(=O)O)CC2)cc1Cl)c1csc2ccccc12 [Example 116, Trans-4-[(4S)-(4-benzylpiperazin-1-yl)-1-[[4-[(benzo[b]thiophen-3-ylcarbonyl)amino]-5-chloro-2-fluorophenyl]acetyl]-(2S)-pyrrolidinylmethoxy]cyclohexanecarboxylic acid] |
| 4.5 nM | 12 nM | Cn1cc(C(=O)Nc2cc(Cl)c(CC(=O)N3C[C@@H](N4CCN(CCF)CC4)C[C@H]3CO[C@H]3CC[C@H](C(=O)O)CC3)cc2Cl)c2ccccc21 [Example 117, Trans-4-[1-[[2,5-dichloro-4-[(1-methyl-1H-indol-3-ylcarbonyl)amino]phenyl]acetyl]-(4S)-[4-(2-fluoroethyl)piperazin-1-yl]-(2S)-pyrrolidinylmethoxy]cyclohexanecarboxylic acid] |
| 4.5 nM | 20 nM | Cn1cc(C(=O)Nc2cc(Cl)c(CC(=O)N3C[C@@H](N4CCN(C(C)(C)CF)CC4)C[C@H]3CO[C@H]3CC[C@H](C(=O)O)CC3)cc2Cl)c2ccccc21 [Example 119, Trans-4-[1-[[2,5-dichloro-4-[(1-methyl-1H-indol-3-ylcarbonyl)amino]phenyl]acetyl]-(4S)-[4-(1,1-dimethyl-2-fluoroethyl)piperazin-1-yl]-(2S)-pyrrolidinylmethoxy]cyclohexanecarboxylic acid] |
| 3.8 nM | 16 nM | Cn1cc(C(=O)Nc2cc(Cl)c(CC(=O)N3C[C@@H](N4CCN(CC(F)F)CC4)C[C@H]3CO[C@H]3CC[C@H](C(=O)O)CC3)cc2Cl)c2ccccc21 [Example 120, Trans-4-[1-[[2,5-dichloro-4-[(1-methyl-1H-indol-3-ylcarbonyl)amino]phenyl]acetyl]-(4S)-[4-(2,2-difluoroethyl)piperazin-1-yl]-(2S)-pyrrolidinylmethoxy]cyclohexanecarboxylic acid] |
| 3.2 nM | 11 nM | Cn1cc(C(=O)Nc2cc(F)c(CC(=O)N3C[C@@H](N4CCN(CC(F)F)CC4)C[C@H]3CO[C@H]3CC[C@H](C(=O)O)CC3)cc2Cl)c2ccccc21 [Example 121, Trans-4-[1-[[5-chloro-2-fluoro-4-[(1-methyl-1H-indol-3-ylcarbonyl)amino]phenyl]acetyl]-(4S)-[4-(2,2-difluoroethyl)piperazin-1-yl]-(2S)-pyrrolidinylmethoxy]cyclohexanecarboxylic acid] |
| 8.8 nM | 36 nM | Cn1cc(C(=O)Nc2cc(Cl)c(CC(=O)N3C[C@@H](N4CCN(CC(F)(F)F)CC4)C[C@H]3CO[C@H]3CC[C@H](C(=O)O)CC3)cc2Cl)c2ccccc21 [Example 122, Trans-4-[1-[[2,5-dichloro-4-[(1-methyl-1H-indol-3-ylcarbonyl)amino]phenyl]acetyl]-(4S)-[4-(2,2,2-trifluoroethyl)piperazin-1-yl]-(2S)-pyrrolidinylmethoxy]cyclohexanecarboxylic acid] |
| 1.8 nM | 10 nM | O=C(Nc1cc(F)c(CC(=O)N2C[C@@H](N3CCN(CC(F)(F)F)CC3)C[C@H]2CO[C@H]2CC[C@H](C(=O)O)CC2)cc1Cl)c1csc2ccccc12 [Example 123, Trans-4-[1-[[4-[(benzo[b]thiophen-3-ylcarbonyl)amino]-5-chloro-2-fluorophenyl]acetyl]-(4S)-[4-(2,2,2-trifluoroethyl)piperazin-1-yl]-(2S)-pyrrolidinylmethoxy]cyclohexanecarboxylic acid] |
| 3.4 nM | 26 nM | O=C(Nc1cc(Cl)c(CC(=O)N2C[C@@H](N3CCN(CC(F)(F)F)CC3)C[C@H]2CO[C@H]2CC[C@H](C(=O)O)CC2)cc1Cl)c1coc2ccccc12 [Example 125, Trans-4-[1-[[4-[(benzo[b]furan-3-ylcarbonyl)amino]-2,5-dichlorophenyl]acetyl]-(4S)-[4-(2,2,2-trifluoroethyl)piperazin-1-yl]-(2S)-pyrrolidinylmethoxy]cyclohexanecarboxylic acid] |
| 2.4 nM | 13 nM | O=C(Nc1cc(F)c(CC(=O)N2C[C@@H](N3CCN(CC(F)(F)F)CC3)C[C@H]2CO[C@H]2CC[C@H](C(=O)O)CC2)cc1Cl)c1coc2ccccc12 [Example 126, Trans-4-[1-[[4-[(benzo[b]furan-3-ylcarbonyl)amino]-5-chloro-2-fluorophenyl]acetyl]-(4S)-[4-(2,2,2-trifluoroethyl)piperazin-1-yl]-(2S)-pyrrolidinylmethoxy]cyclohexanecarboxylic acid] |
| 3.9 nM | 13 nM | Cn1nc(C(=O)Nc2ccc(CC(=O)N3C[C@@H](N4CCN(CC(F)(F)F)CC4)C[C@H]3CO[C@H]3CC[C@H](C(=O)O)CC3)cc2Cl)c2ccccc21 [Example 128, Trans-4-[1-[[3-chloro-4-[(1-methyl-1H-indazol-3-ylcarbonyl)amino]phenyl]acetyl]-(4S)-[4-(2,2,2-trifluoroethyl)piperazin-1-yl]-(2S)-pyrrolidinylmethoxy]cyclohexanecarboxylic acid] |
| 0.93 nM | 1.9 nM | O=C(Nc1cc(Cl)c(CC(=O)N2C[C@@H](N3CCN(CC(F)(F)F)CC3)C[C@H]2CO[C@H]2CC[C@H](C(=O)O)CC2)cc1Cl)c1c[nH]c2ccccc12 [Example 129, Trans-4-[1-[[2,5-dichloro-4-[(1H-indol-3-ylcarbonyl)amino]phenyl]acetyl]-(4S)-[4-(2,2,2-trifluoroethyl)piperazin-1-yl]-(2S)-pyrrolidinylmethoxy]cyclohexanecarboxylic acid] |
| 2.7 nM | 7.5 nM | Cn1cc(C(=O)Nc2ccc(CC(=O)N3C[C@@H](N4CCN(CC(F)(F)F)CC4)C[C@H]3CO[C@H]3CC[C@H](C(=O)O)CC3)cc2Cl)c2ccccc21 [Example 130, Trans-4-[1-[[3-chloro-4-[(1-methyl-1H-indol-3-ylcarbonyl)amino]phenyl]acetyl]-(4S)-[4-(2,2,2-trifluoroethyl)piperazin-1-yl]-(2S)-pyrrolidinylmethoxy]cyclohexanecarboxylic acid] |
| 1.1 nM | 1.8 nM | O=C(Nc1cc(F)c(CC(=O)N2C[C@@H](N3CCN(CC(F)(F)F)CC3)C[C@H]2CO[C@H]2CC[C@H](C(=O)O)CC2)cc1Cl)c1c[nH]c2ccccc12 [Example 131, Trans-4-[1-[[5-chloro-2-fluoro-4-[(1H-indol-3-ylcarbonyl)amino]phenyl]acetyl]-(4S)-[4-(2,2,2-trifluoroethyl)piperazin-1-yl]-(2S)-pyrrolidinylmethoxy]cyclohexanecarboxylic acid] |
| 1.7 nM | 4 nM | O=C(Nc1ccc(CC(=O)N2C[C@@H](N3CCN(CC(F)(F)F)CC3)C[C@H]2CO[C@H]2CC[C@H](C(=O)O)CC2)cc1Cl)c1coc2ccccc12 [Example 132, Trans-4-[1-[[4-[(benzo[b]furan-3-ylcarbonyl)amino]-3-chlorophenyl]acetyl]-(4S)-[4-(2,2,2-trifluoroethyl)piperazin-1-yl]-(2S)-pyrrolidinylmethoxy]cyclohexanecarboxylic acid] |
